≈ marks a conversion by molar mass, not a printed value. Like-named read-outs stand apart in the source and are kept apart here.
Key:
[1] = system: human adult liver epithelial cells (THLE-3); test: In vitro toxicity evaluation, Sulforhodamine B; assay type: cell-based; settings: for IC50: Homo sapiens, read-out: IC50 THLE-3; for Selectivity IC50 (THLE-3)/IC50 (D6): ratio THLE-3 vs D6
Protocol: (§1) For in vitro toxicological studies, the following cell line was chosen: human adult liver epithelial cells (THLE-3). THLE-3 cells express phenotypic characteristics of normal adult liver epithelial cells and constitute a valuable model for pharmacotoxicological studies.
Human adult liver epithelial cells (THLE-3) was maintained in tissue culture flasks in Waymouth's medium (Gibco, N.Y.) supplemented with 10% fetal bovine serum. Toxicity tests were performed in 96-well tissue culture plates using the protein-binding dye Sulforhodamine B. Test compounds were serially diluted and added to empty wells of the 96-well plate. THLE-3 cells in their culture medium were immediately seeded into the wells. Solvent blanks (no compound) were run in each test. After 72 hours under culture conditions cells were fixed to the plate by layering 50% TCA (4° C.) over the growth media in each well to produce a final TCA concentration of 10%. After incubating for one hour at 4° C., cultures were washed five times with tap water and left air-dried. Wells were stained for 30 min. with 0.4% (w/v) SRB in 1% acetic acid and washed four times with 1% acetic acid. Cultures were left air-dried and bound dye was solubilized with 10 mM Tris base (pH 10.5) for 15 min. on a gyratory shaker at room temperature. A Spectra MAX Plus Microtiter Plate Reader (Molecular Devices, Menlo Park, Calif.) was used to measure the optical density at wavelengths of 490-530 nm.

[2] = system: P. berghei; test: Blood schizontocidal test in mice, oral; assay type: in vivo; settings: for toxicity in mice: oral, at the highest dose tested
Protocol: Drugs were mixed in 0.5% hydroxycellulose 0.1% Tween 80 and administered orally b.i.d. on days 3, 4 and 5 postinfection. CD-1 male or female mice, 5 weeks of age, were infected with 5×10^4 parasitized erythrocytes of Plasmodium berghei KBG-173 mm strain. Blood films were taken on day +6 and weekly thereafter until day +60. Parasitemias were calculated and SD90 value (dose suppressing 90% of the parasites in treated groups compared with the infected non-treated controls) on day +6 postinfection. Mortality data was tabulated for 60 days at which time all mice surviving that were blood film negative were considered cured. […]

[3] = system: P. falciparum D6 (chloroquine sensitive); test: In vitro anti-malarial activity, [3H]hypoxanthine uptake, D6 clone; assay type: cell-based, Plasmodium falciparum
Text: as §1
(§2) Two P. falciparum malaria parasite clones, W2 and D6, from Malaria Research and Reference Reagent Resource Center (MR4), were utilized in susceptibility testing. […] Test compounds were initially dissolved in DMSO and diluted 400 fold in RPMI 1640 culture medium supplemented with 25 mM Hepes, 32 mM NaHCO3 and 10% Albumax I (Gibco, N.Y.). These solutions were subsequently serially diluted two-fold with a Beckman Biomek® 1000 Robot (Fullerton, Calif.) over 11 different concentrations. The parasites were exposed to serial dilutions of each compound for 48 hrs and incubated at 37° C. with 5% O2, 5% CO2 and 90% N2 prior to the addition of [^3H]hypoxanthine. After a further incubation of 18 hrs, parasite DNA was harvested from each microtiter well using Packard Filtermate™ 196 Harvester (Meriden, Conn.) onto glass filters. Uptake of [^3H]hypoxanthine was measured with a Packard TopCount Liquid Scintillation Counter (Packard Instrument Co.).

[4] = system: P. falciparum W2 (chloroquine resistant); test: In vitro anti-malarial activity, [3H]hypoxanthine uptake, W2 clone; assay type: cell-based, Plasmodium falciparum
Text: as §1, §2

[5] = system: P. berghei; test: Suppressive blood schizontocidal activity in mice, subcutaneous single dose; assay type: in vivo; settings: 72 h after infection
Protocol: Mice were treated with a single dose of the compound administered subcutaneously 72 h after infection. Number of cures is the number of mice surviving, out of five, 60 days postinfection.

[6] = system: Plasmodium berghei KBG-173; test: Prophylactic test in mice, oral; assay type: in vivo; settings: for Mice infected and treated/Mice surviving day 60: oral; for protection from malaria: single dose of 0.5 mg/kg within 2 days pre-infection through 2 days post-infection
Protocol: Compounds were tested for oral prophylactic activity.
CD-I male or female mice, 5 weeks of age, were infected with 5×10^4 parasitized erythrocytes of Plasmodium berghei KBG-173 mm strain. […]

[7] = oral dose 0.25 mg/kg/day (total dose 0.75 mg/kg)
[8] = oral dose 1.0 mg/kg/day (total dose 3.0 mg/kg)
[9] = oral dose 4.0 mg/kg/day (total dose 12 mg/kg)
[10] = oral dose 16 mg/kg/day (total dose 48 mg/kg)
[11] = oral dose 64 mg/kg/day (total dose 192 mg/kg)
[12] = subcutaneous single dose 1 mg/kg
[13] = subcutaneous single dose 2 mg/kg
[14] = subcutaneous single dose 4 mg/kg
[15] = subcutaneous single dose 8 mg/kg
[16] = subcutaneous single dose 16 mg/kg
[17] = subcutaneous single dose 32 mg/kg
[18] = subcutaneous single dose 64 mg/kg
[19] = subcutaneous single dose 128 mg/kg
[20] = THLE3, THLE-3 cells, 72 hours, cell growth inhibition
[21] = day of treatment 1, dose 0.5 mg/kg
[22] = day of treatment 1, dose 2 mg/kg
[23] = day of treatment 1, dose 8 mg/kg
[24] = day of treatment 1, dose 32 mg/kg
[25] = day of treatment 2, dose 0.5 mg/kg
[26] = day of treatment 2, dose 2 mg/kg
[27] = day of treatment 2, dose 8 mg/kg
[28] = day of treatment 2, dose 32 mg/kg
[29] = day of treatment −1, dose 0.5 mg/kg
[30] = day of treatment −1, dose 2 mg/kg
[31] = day of treatment −1, dose 8 mg/kg
[32] = day of treatment −1, dose 32 mg/kg
[33] = day of treatment −2, dose 0.5 mg/kg
[34] = day of treatment −2, dose 2 mg/kg
[35] = day of treatment −2, dose 8 mg/kg
[36] = day of treatment −2, dose 32 mg/kg
[37] = Plasmodium falciparum, D6; read-out: IC50 D6 Strain
[38] = Plasmodium falciparum, W2; read-out: IC50 W2 Strain

Structure (SMILES) | Selectivity IC50 (THLE-3)/IC50 (D6) [1] | Mice surviving 60 days/Mice infected and treated [2, 7] | Mice surviving 60 days/Mice infected and treated [2, 8] | Mice surviving 60 days/Mice infected and treated [2, 9] | Mice surviving 60 days/Mice infected and treated [2, 10] | Mice surviving 60 days/Mice infected and treated [2, 11] | Mice surviving 60 days/Mice infected and treated [5, 12] | Mice surviving 60 days/Mice infected and treated [5, 13] | Mice surviving 60 days/Mice infected and treated [5, 14] | Mice surviving 60 days/Mice infected and treated [5, 15] | Mice surviving 60 days/Mice infected and treated [5, 16] | Mice surviving 60 days/Mice infected and treated [5, 17] | Mice surviving 60 days/Mice infected and treated [5, 18] | Mice surviving 60 days/Mice infected and treated [5, 19] | IC50 [1, 20] [ng/mL] | toxicity in mice [2] | Mice infected and treated/Mice surviving day 60 [6, 21] | Mice infected and treated/Mice surviving day 60 [6, 22] | Mice infected and treated/Mice surviving day 60 [6, 23] | Mice infected and treated/Mice surviving day 60 [6, 24] | further results
CCN(CC)CCCC(C)Nc1ccnc2cc(Cl)ccc12 (centres unmarked) [Chloroquine, reference compound] | 463 | 0/7 | 0/7 | 2/7 | 4/7 | 0/7 | – | – | – | – | – | – | – | – | – | – | – | – | – | – | IC50 ([1]; THLE3, 72 h): 2920 ng/mL (≈ 9.13 µM); IC50 ([3]; Plasmodium falciparum, D6, read-out: IC50 D6 Strain): 6.3 ng/mL (≈ 0.0197 µM); IC50 ([4]; Plasmodium falciparum, W2, read-out: IC50 W2 Strain): 108 ng/mL (≈ 0.338 µM)
CC[C@@]12C=Cc3nc4c(OC)c(OC)c5c(c4cc3C1N(C(C)=O)CC1O[C@@H]12)C(=O)[C@](C)(C(=O)OC)N5C(C)=O (some centres unmarked) [Formula II] | 7.3 × 10^4 | 7/7 | 7/7 | 7/7 | 7/7 | 7/7 | 4/5 | 5/5 | 5/5 | 5/5 | 5/5 | 5/5 | 5/5 | 5/5 | 15400 | no mice showed toxicity | 5/5 | 5/5 | 5/5 | 5/5 | Mice infected and treated/Mice surviving day 60 [6, 25]: 5/5; Mice infected and treated/Mice surviving day 60 [6, 26]: 5/5; Mice infected and treated/Mice surviving day 60 [6, 27]: 5/5; Mice infected and treated/Mice surviving day 60 [6, 28]: 5/5; Mice infected and treated/Mice surviving day 60 [6, 29]: 5/5; Mice infected and treated/Mice surviving day 60 [6, 30]: 5/5; Mice infected and treated/Mice surviving day 60 [6, 31]: 5/5; Mice infected and treated/Mice surviving day 60 [6, 32]: 5/5; Mice infected and treated/Mice surviving day 60 [6, 33]: 5/5; Mice infected and treated/Mice surviving day 60 [6, 34]: 5/5; Mice infected and treated/Mice surviving day 60 [6, 35]: 5/5; Mice infected and treated/Mice surviving day 60 [6, 36]: 5/5; protection from malaria [6]: completely protected from malaria; inhibitory activity against chloroquine sensitive malaria strain (D-6), in words ([3]; D-6 strain): equally potent inhibitory activity; IC50 [3, 37]: 0.21 ng/mL; IC50 [4, 38]: 0.23 ng/mL; inhibitory activity against chloroquine resistant malaria strain (W-2), in words ([4]; W-2 strain): equally potent inhibitory activity
CC[C@]12C=CCN(C(C)=O)C1c1cc3c(nc1C=C2)c(OC)c(OC)c1c3cc(C(=O)SC)n1C(C)=O (some centres unmarked) [Formula I] | 5.3 × 10^4 | 7/7 | 7/7 | 7/7 | 7/7 | 7/7 | 4/5 | 5/5 | 5/5 | 5/5 | 5/5 | 5/5 | 5/5 | 5/5 | 17100 | no mice showed toxicity | 5/5 | 5/5 | 5/5 | 5/5 | Mice infected and treated/Mice surviving day 60 [6, 25]: 5/5; Mice infected and treated/Mice surviving day 60 [6, 26]: 5/5; Mice infected and treated/Mice surviving day 60 [6, 27]: 5/5; Mice infected and treated/Mice surviving day 60 [6, 28]: 5/5; Mice infected and treated/Mice surviving day 60 [6, 29]: 5/5; Mice infected and treated/Mice surviving day 60 [6, 30]: 5/5; Mice infected and treated/Mice surviving day 60 [6, 31]: 5/5; Mice infected and treated/Mice surviving day 60 [6, 32]: 5/5; Mice infected and treated/Mice surviving day 60 [6, 33]: 5/5; Mice infected and treated/Mice surviving day 60 [6, 34]: 5/5; Mice infected and treated/Mice surviving day 60 [6, 35]: 5/5; Mice infected and treated/Mice surviving day 60 [6, 36]: 5/5; protection from malaria [6]: completely protected from malaria; inhibitory activity against chloroquine sensitive malaria strain (D-6), in words ([3]; D-6 strain): equally potent inhibitory activity; IC50 [3, 37]: 0.32 ng/mL; IC50 [4, 38]: 0.29 ng/mL; inhibitory activity against chloroquine resistant malaria strain (W-2), in words ([4]; W-2 strain): equally potent inhibitory activity

Source: patent US8022080B2, “Small molecules with antiprotozoal activity” (Radix Pharmaceuticals Inc., priority 2009, dated 2011)
